PubChem BioAssay (NCI)
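Results reflect a 48-hour exposure of cells in 96-well plates to compound at five concentrations. At the TGI there is no net growth.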

Experiments:
Assay in all cases: NCI anticancer screen, dose series, 48 h
[1] = tested on: 786-0 renal
[2] = tested on: A498 renal
[3] = tested on: A549 NSCLC
[4] = tested on: ACHN renal
[5] = tested on: BT-549 breast
[6] = tested on: CAKI-1 renal
[7] = tested on: CCRF-CEM leukemia
[8] = tested on: COLO 205 colon
[9] = tested on: DU-145 prostate
[10] = tested on: EKVX NSCLC
[11] = tested on: HCT-116 colon
[12] = tested on: HL-60(TB) leukemia
[13] = tested on: HOP-62 NSCLC
[14] = tested on: HOP-92 NSCLC
[15] = tested on: HS 578T breast
[16] = tested on: HT29 colon
[17] = tested on: IGROV1 ovarian
[18] = tested on: K-562 leukemia
[19] = tested on: KM12 colon
[20] = tested on: LOX IMVI melanoma
[21] = tested on: M14 melanoma
[22] = tested on: MALME-3M melanoma
[23] = tested on: MCF7 breast
[24] = tested on: MDA-MB-231 breast
[25] = tested on: MDA-N
[26] = tested on: MOLT-4 leukemia
[27] = tested on: NCI-H23 lung
[28] = tested on: NCI-H522 lung
[29] = tested on: NCI/ADR-RES ovarian
[30] = tested on: OVCAR-3 ovarian
[31] = tested on: OVCAR-4 ovarian
[32] = tested on: OVCAR-5 ovarian
[33] = tested on: OVCAR-8 ovarian
[34] = tested on: PC-3 prostate
[35] = tested on: RPMI-8226 leukemia
[36] = tested on: RXF 393 renal
[37] = tested on: SF-268 CNS
[38] = tested on: SF-295 CNS
[39] = tested on: SF-539 CNS
[40] = tested on: SK-MEL-2 melanoma
[41] = tested on: SK-MEL-28 melanoma
[42] = tested on: SK-MEL-5 melanoma
[43] = tested on: SK-OV-3 ovarian
[44] = tested on: SN12C renal
[45] = tested on: SNB-19 CNS
[46] = tested on: SNB-75 CNS
[47] = tested on: SR leukemia
[48] = tested on: SW-620 colon
[49] = tested on: T-47D breast
[50] = tested on: TK-10 renal
[51] = tested on: U251 CNS
[52] = tested on: UACC-257 melanoma
[53] = tested on: UACC-62 melanoma
[54] = tested on: UO-31 renal
[55] = tested on: HCC-2998 colon
[56] = tested on: HCT-15 colon
[57] = tested on: MDA-MB-435
[58] = tested on: NCI-H226 lung
[59] = tested on: NCI-H460 lung

Measured: TGI

O=C1C(Br)=C(C2=CC(=P(c3ccccc3)(c3ccccc3)c3ccccc3)C=C2)C(=O)C(Br)=C1C1=CC(=P(c2ccccc2)(c2ccccc2)c2ccccc2)C=C1
42.9 µM: [28]
34 µM: [10]
25.1 µM: [21]
95.1 µM: [52]
55.5 µM: [14]
34.1 µM: [22]
30.6 µM: [51]
> 100 µM: [1] | [2] | [3] | [4] | [5] | [6] | [7] | [8] | [9] | [11] | [12] | [13] | [15] | [16] | [17] | [18] | [19] | [20] | [23] | [24] | [25] | [26] | [27] | [29] | [30] | [31] | [33] | [34] | [35] | [36] | [37] | [38] | [39] | [40] | [41] | [42] | [43] | [44] | [45] | [46] | [47] | [49] | [50] | [53] | [54]
31.7 µM: [32]
35 µM: [48]

COc1cc(COC(=O)N2CSCC2C(=O)O)c([N+](=O)[O-])cc1OC (stereo unspecified)
> 100 µM: [1] | [3] | [4] | [5] | [7] | [9] | [10] | [55] | [11] | [56] | [12] | [13] | [14] | [15] | [16] | [17] | [18] | [19] | [21] | [22] | [23] | [57] | [25] | [26] | [58] | [27] | [59] | [29] | [30] | [32] | [33] | [34] | [35] | [37] | [38] | [39] | [42] | [43] | [44] | [45] | [46] | [47] | [48] | [49] | [51] | [52] | [53] | [54]

COc1ccc2c(c1)N=C(N)n1c(nc3ccccc31)S2
20.8 µM: [42]
70.5 µM: [36]
26.2 µM: [27]
86.7 µM: [29]
69.1 µM: [34]
26.1 µM: [8]
15.8 µM: [11]
53.2 µM: [14]
90.4 µM: [30]
4.39 µM: [1]
95.4 µM: [43]
29.4 µM: [51]
38.9 µM: [31]
38.1 µM: [52]
16 µM: [25]
23.9 µM: [32]
80.6 µM: [2]
32.3 µM: [24]
76.7 µM: [49] | [53]
36.2 µM: [19]
15.6 µM: [21]
15.9 µM: [16]
> 100 µM: [3] | [4] | [5] | [9] | [55] | [56] | [12] | [13] | [15] | [17] | [18] | [20] | [22] | [23] | [26] | [58] | [59] | [35] | [37] | [38] | [39] | [41] | [44] | [45] | [46] | [47] | [48] | [50]
28.1 µM: [40]
38.4 µM: [54]
25.9 µM: [28]
